Earlier results as cited in patent publication US20210145778A1, “Stable Liquid Compositions of Melphalan” (Orbicular Pharmaceutical Technologies Pvt. Ltd., priority 2018, published 2021).

N[C@@H](Cc1ccc(N(CCCl)CCCl)cc1)C(=O)O [Melphalan, L-phenylalanine mustard]
Stability in aqueous solutions: poor stability
